Data as given in US20230295197A1, “STAT5 and STAT6 Degraders and Uses Thereof” (REGENTS OF THE UNIVERSITY OF MICHICAN, priority 2022, published 2023).
Read-outs that look alike come from different tables or passages of the source.

Target: T1, STAT6 (Homo sapiens, UniProt P42226)
T1 construct: endogenous in cells; host or cells: MOLM-16, KU-812, SKNO1, MB231, L1236
T1 sequence (P42226 1-847): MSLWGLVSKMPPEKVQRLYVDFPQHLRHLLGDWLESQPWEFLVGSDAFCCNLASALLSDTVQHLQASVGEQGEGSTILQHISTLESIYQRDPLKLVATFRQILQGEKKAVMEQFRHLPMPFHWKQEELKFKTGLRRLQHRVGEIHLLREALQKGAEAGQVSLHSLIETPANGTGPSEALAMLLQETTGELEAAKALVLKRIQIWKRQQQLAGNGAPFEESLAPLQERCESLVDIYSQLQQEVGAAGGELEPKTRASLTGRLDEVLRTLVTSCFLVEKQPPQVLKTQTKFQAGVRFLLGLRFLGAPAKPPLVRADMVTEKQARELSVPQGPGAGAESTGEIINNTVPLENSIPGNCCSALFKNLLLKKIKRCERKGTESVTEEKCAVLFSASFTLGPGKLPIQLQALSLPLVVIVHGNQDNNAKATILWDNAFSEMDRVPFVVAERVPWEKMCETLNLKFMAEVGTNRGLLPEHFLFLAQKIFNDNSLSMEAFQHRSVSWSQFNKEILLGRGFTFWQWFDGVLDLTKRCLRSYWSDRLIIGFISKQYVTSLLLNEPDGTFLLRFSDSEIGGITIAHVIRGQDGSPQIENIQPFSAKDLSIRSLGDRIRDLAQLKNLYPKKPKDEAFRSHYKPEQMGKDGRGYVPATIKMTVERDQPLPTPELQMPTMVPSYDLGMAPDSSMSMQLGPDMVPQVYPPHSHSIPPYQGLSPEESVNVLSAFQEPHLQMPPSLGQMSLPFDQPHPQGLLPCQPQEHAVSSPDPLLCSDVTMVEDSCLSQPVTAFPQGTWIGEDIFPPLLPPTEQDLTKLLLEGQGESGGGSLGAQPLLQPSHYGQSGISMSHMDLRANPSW
Experiment: Immunoblotting (Western blot) analysis of STAT6 degradation efficiency of degraders in treated cells
Assay type: cell-based
Method in brief: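 ~1e6 cells/pt; cpd at indicated conc and duration; RIPA + protease/phosphatase inhibitors; BCA; 20-40 μg/lane Tris-glycine SDS-PAGE; PVDF; primary Ab 1:1000 o/n 4 °C; IRDye secondaries 1 h rt; infrared scan and densitometry; GAPDH loading ctrl.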

[1] = MOLM-16 cells, class symbols, read-out: DC50 S6 MOLM-16
[2] = L1236 cells, read-out: DC50 S6 L1236

Row | DC50 [1] | SMILES | DC50 [2]
1 | > 10 µM | CC(C)(C)[C@H](NC(=O)c1cc2cc(C(F)(F)P(=O)(O)O)ccc2s1)C(=O)N1C[C@@H](OCC(=O)NCCCCCCCCC#Cc2ccc3c(c2)C(=O)N(C2CCC(=O)NC2=O)C3=O)C[C@H]1C(=O)N1CCC[C@H](c2ccccc2)C1 (stereo partly drawn) [Compound 504, ((2-(((2S)-1-((2S,4S)-4-(2-((10-(2-(2,6-dioxopiperidin-3-yl)-1,3-dioxoisoindolin-5-yl)dec-9-yn-1-yl)amino)-2-oxoethoxy)-2-((R)-3-phenylpiperidine-1-carbonyl)pyrrolidin-1-yl)-3,3-dimethyl-1-oxobutan-2-yl)carbamoyl)benzo[b]thiophen-5-yl)difluoromethyl)phosphonic acid] | 
2 | > 10 µM | CC(C)(C)[C@H](NC(=O)c1cc2cc(C(F)(F)P(=O)(O)O)ccc2s1)C(=O)N1C[C@@H](OCC(=O)NCCCC#Cc2ccc3c(c2)C(=O)N(C2CCC(=O)NC2=O)C3=O)C[C@H]1C(=O)N1CCC[C@H](c2ccccc2)C1 (stereo partly drawn) [Compound 498, ((2-(((2S)-1-((2S,4S)-4-(2-((5-(2-(2,6-dioxopiperidin-3-yl)-1,3-dioxoisoindolin-5-yl)pent-4-yn-1-yl)amino)-2-oxoethoxy)-2-((R)-3-phenylpiperidine-1-carbonyl)pyrrolidin-1-yl)-3,3-dimethyl-1-oxobutan-2-yl)carbamoyl)benzo[b]thiophen-5-yl)difluoromethyl)phosphonic acid] | 
3 | > 10 µM | O=C1CCC(N2Cc3c(C#CCCCCCC(=O)N4CC[C@H]5CC[C@@H](C(=O)N6CC[C@@H](c7ccccc7)C6)N5C(=O)[C@@H](NC(=O)c5cc6cc(C(F)(F)P(=O)(O)O)ccc6s5)C4)cccc3C2=O)C(=O)N1 (stereo partly drawn) [Compound 563, ((2-(((5S,8S,10aR)-3-(8-(2-(2,6-dioxopiperidin-3-yl)-1-oxoisoindolin-4-yl)oct-7-ynoyl)-6-oxo-8-((S)-3-phenylpyrrolidine-1-carbonyl)decahydropyrrolo[1,2-a][1,5]diazocin-5-yl)carbamoyl)benzo[b]thiophen-5-yl)difluoromethyl)phosphonic acid] | > 10 µM

Row | SMILES | DC50 [1] | DC50 [2]
4 | CC(C)(C)[C@H](NC(=O)c1cc2cc(C(F)(F)P(=O)(O)O)ccc2s1)C(=O)N1CCN(C(=O)CC(=O)NCCCC#Cc2ccc3c(c2)C(=O)N(C2CCC(=O)NC2=O)C3=O)C[C@H]1C(=O)N1CCO[C@H](c2ccccc2)C1 (stereo partly drawn) [Compound 512, ((2-(((25)-1-((2S)-4-(3-((5-(2-(2,6-dioxopiperidin-3-yl)-1,3-dioxoisoindolin-5-yl)pent-4-yn-1-yl)amino)-3-oxopropanoyl)-2-((R)-2-phenylmorpholine-4-carbonyl)piperazin-1-yl)-3,3-dimethyl-1-oxobutan-2-yl)carbamoyl)benzo[b]thiophen-5-yl)difluoromethyl)phosphonic acid] | 0.1 to 1 µM | 
5 | Cc1ncsc1-c1ccc([C@H](C)NC(=O)[C@@H]2C[C@@H](O)CN2C(=O)[C@@H](NC(=O)CCCNC(=O)CC(=O)N2CCN(C(=O)[C@@H](NC(=O)c3cc4cc(C(F)(F)P(=O)(O)O)ccc4s3)C(C)(C)C)[C@H](C(=O)N3CCC[C@H](c4ccccc4)C3)C2)C(C)(C)C)cc1 [Compound 454, (difluoro(2-(((S)-1-((S)-4-(3-((4-(((S)-1-((2S,4R)-4-hydroxy-2-(((S)-1-(4-(4-methylthiazol-5-yl)phenyl)ethyl)carbamoyl)pyrrolidin-1-yl)-3,3-dimethyl-1-oxobutan-2-yl)amino)-4-oxobutyl)amino)-3-oxopropanoyl)-2-((R)-3-phenylpiperidine-1-carbonyl)piperazin-1-yl)-3,3-dimethyl-1-oxobutan-2-yl)carbamoyl)benzo[b]thiophen-5-yl)methyl)phosphonic acid] | > 10 µM | > 10 µM
